Like-named read-outs stand apart in the source and are kept apart here.
Biological target: T1, 5α-Reductase of Rat Liver Microsomes (Rattus norvegicus, UniProt P24008)
T1 sequence (P24008 1-259): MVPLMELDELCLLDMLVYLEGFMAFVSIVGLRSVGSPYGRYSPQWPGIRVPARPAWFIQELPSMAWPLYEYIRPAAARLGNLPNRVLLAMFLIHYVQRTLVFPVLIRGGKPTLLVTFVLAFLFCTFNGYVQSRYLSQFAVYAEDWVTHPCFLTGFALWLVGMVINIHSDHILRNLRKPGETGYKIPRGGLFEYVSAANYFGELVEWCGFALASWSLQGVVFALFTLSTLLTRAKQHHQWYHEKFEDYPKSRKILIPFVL
Test: biochemical
Settings: for inhibition at 5 µM: read-out: % Inhibition of [^3 H]4-MA binding, Table 2, 5 μM

[1] = read-out: % Inhibition of [^3 H]4-MA binding, Table 1, 40 μM
[2] = read-out: % Inhibition of [^3 H]4-MA binding, Table 1, 200 μM
[3] = read-out: % Inhibition of [^3 H]4-MA binding, Table 2, 40 μM
[4] = read-out: % Inhibition of [^3 H]4-MA binding, Table 2, 200 μM
[5] = read-out: % Inhibition of [^3 H]4-MA binding, Table 2, 10 μM
[6] = read-out: % Inhibition of [^3 H]4-MA binding
[7] = read-out: % Inhibition of [^3 H]4-MA binding, Table 1, 10 μM

SMILES | inhibition at 40 µM [3] [%] | inhibition at 200 µM [4] [%] | IC50 [µM] | inhibition at 5 µM [%] | inhibition at 10 µM [5] [%] | other results
CCCCCCCCCCC/C=C\CCCCC(=O)O [Petroselinic acid] | < 10 | 52 |  |  |  | inhibition at 40 µM [1]: < 10%; inhibition at 200 µM [2]: 52 ± 9%
CC/C=C\C/C=C\C/C=C\CCCCCCCCCCCC(=O)O [13,16,19-Docosatrienoic Acid, 13,16,19-docosatrienoic acid] | < 10 | 65 | 163 | < 10 | < 10 | 
CCCCC/C=C\C/C=C\C/C=C\CCCCCOC(C)=O [γ-Linolenyl Acetate, γ-linolenyl acetate] | < 10 | 27 | > 200 | < 10 | < 10 | 
CC/C=C\C/C=C\C/C=C\CCCCCCCCCC(=O)Cl [11,14,17-cis-Eicosatrienoyl Chloride, 11,14,17-eicosatrienoyl chloride] | < 10 | < 10 | > 200 | < 10 | < 10 | 
CCCCC/C=C\C/C=C\C/C=C\CCCCCCC(=O)O [8,11,14-cis-Eicosatrienoic Acid, 8,11,14-eicosatrienoic acid] | 92 | 82 | 15 | < 10 | 42 | 
CCCC/C=C\CCCCCCCCC(=O)O [10-Pentadecenoic Acid, 10-pentadecenoic acid] | < 10 | 71 | 100 | < 10 | < 10 | 
CCCC/C=C\CCCCCCCC(=O)OC [myristoleic acid methyl ester] |  |  |  |  |  | inhibition at 200 µM [6]: 27%
CCCCCCCC/C=C\CCCCCCCCCC(=O)O [11-Eicosenoic Acid, 11 eicosenoic acid] | 15 | 76 | 146 | < 10 | < 10 | 
CC/C=C\C/C=C\C/C=C\CCCCCCCC(=O)OC [α-Linolenic acid methyl ester] |  |  |  |  |  | inhibition at 10 µM [6]: < 10%; inhibition at 40 µM [6]: < 10%; inhibition at 200 µM [6]: < 10%
CCCCCCCCCCCCCC/C=C\CCCC(=O)O [5-Eicosenoic Acid, 5-eicosenoic acid] | < 10 | < 10 | > 200 | < 10 | < 10 | 
CCCCCC/C=C/CCCCCCCCC(=O)O [10-trans-Heptadecenoic Acid, 10-trans-heptadecenoicacid] | < 10 | 40 | > 200 | < 10 | < 10 | 
CCCCCC/C=C\CCCCCCCCC(=O)O [10-cis-Heptadecenoic Acid, 10-heptadecenoic acid] | 83 | 84 | 28 | < 10 | < 10 | 
CCCCC/C=C/C/C=C/CCCCCCCCC#N [linolelaidyl cyanide nitrile] |  |  | > 200 |  |  | 
CCCCCC/C=C\CCCCCCCC(=O)OC [Palmitoleic acid methyl ester] |  |  |  |  |  | inhibition at 40 µM [6]: < 10%; inhibition at 200 µM [6]: < 10%
CCCCC/C=C\C/C=C\C/C=C\CCCCC(=O)Cl [γ-Linolenoyl Chloride, γ-linolenoyl chloride] | < 10 | < 10 | > 200 |  | < 10 | 
CCCCC/C=C\C/C=C\CCCCCCCCCC(=O)Cl [11,14-cis-Eicosaidienoyl Chloride, 11,14-eicosadienoyl chloride] | < 10 | < 10 | > 200 | < 10 | < 10 | 
CCCCC/C=C\C/C=C\CCCCCCCCO [Linoleyl alcohol] |  |  |  |  |  | inhibition at 10 µM [6]: < 10%; inhibition at 40 µM [6]: < 10%; inhibition at 200 µM [6]: 25 ± 5%
CCCCCC/C=C/CCCCCCCCCC(=O)O [trans-Vaccenic Acid] |  | 39 |  |  |  | 
CC/C=C\C/C=C\C/C=C\CCCCCCCCO [α-Linolenyl alcohol] |  |  |  |  |  | inhibition at 10 µM [6]: < 10%; inhibition at 40 µM [6]: < 10%; inhibition at 200 µM [6]: 24 ± 1%
CCCCCCCCCCCCCCCCCCC#N [nonadecane nitrile] |  |  | > 200 |  |  | 
CC/C=C\C/C=C\C/C=C\C/C=C\CCCCC(=O)O [Octadecatetraenoic acid] | 40 | 88 | 57 |  | < 10 | inhibition at 10 µM [7]: < 10%; inhibition at 40 µM [1]: 40 ± 6%; inhibition at 200 µM [2]: 88 ± 2%
CCCCC/C=C\C/C=C\CCCCCCCCC(=O)O [10,13-Nonadecadienoic Acid, 10,13-nonadecadienoic acid] | 37 | 83 | 86 | < 10 | < 10 | 

SMILES | inhibition at 40 µM [3] [%] | inhibition at 200 µM [4] [%] | IC50 [µM] | inhibition at 5 µM [%] | inhibition at 10 µM [5] [%] | other results
CC/C=C\C/C=C\C/C=C\CCCCCCCC(=O)Cl [Linolenoyl Chloride] |  |  |  |  |  | inhibition at 200 µM [6]: < 10%
CCCCCCCC/C=C\CCCCCCCCC(=O)O [10-cis-Nonadecenoic Acid, 10-nonadecenoic acid] | 13 | 79 | 130 | < 10 | < 10 | 
CCCCC/C=C\C/C=C\CCCCCCCCC#N [linoleyl cyanide nitrile] |  |  | > 200 |  |  | 
CCCCCCCC/C=C/CCCCCCCCC(=O)O [10-trans-Nonadecenoic Acid, 10-trans nonadecenoic acid] | < 10 | 32 | > 200 | < 10 | < 10 | 
CCCCC/C=C\C/C=C\CCCCCCCCCCCC(=O)O [13,16-Docosadienoic Acid, 13,16-docosadienoic acid] | 21 | 93 | 118 | < 10 | < 10 | 
CCCCC/C=C\C/C=C\C/C=C\CCCCC(=O)OC [methyl γ-linolenate] |  |  | > 200 |  |  | 
CCCCCC/C=C/CCCCCCCC(=O)O [Palmitelaidic Acid] |  |  |  |  |  | inhibition at 200 µM [6]: < 10%
CCCCC/C=C/C/C=C/CCCCCCCCCC(=O)O [11,14-trans-Eicosadienoic Acid, trans 11,14-eicosadienoic acid] | < 10 | < 10 | > 200 | < 10 | < 10 | 
CCC=CCC=CCC=CCCCCCCCCCCCC(=O)OC [methyl 13,16,19-docosatrienoate] |  |  | > 200 |  |  | 
CCCCC/C=C\CCCCCCCCCCC(=O)O [12-Octadecenoic Acid, 12-octadecenoic acid] | < 10 | < 10 | > 200 | < 10 | < 10 | 
CCCCCCCC/C=C\CCCCCCCCO [Oleyl alcohol] |  |  |  |  |  | inhibition at 40 µM [6]: < 10%; inhibition at 200 µM [6]: < 10%
CCCCCCCC/C=C\CCCCCCCCCCC(=O)O | 25 | 60 | 154 | < 10 | 15 | 
CCCCCC/C=C\CCCCCCCCCC(=O)O [11-Octadecenoic Acid, 11-octadecenoic acid] | 55 | 81 | 26 | < 10 | 14 | 
CCCCCC/C=C\CCCCCCCC(=O)O [Palmitoleic acid] | 16 | 73 | 108 |  | < 10 | inhibition at 10 µM [7]: < 10%; inhibition at 40 µM [1]: 16 ± 5%; inhibition at 200 µM [2]: 73 ± 7%
CCCCC/C=C\C/C=C\C/C=C\CCCCC(=O)O[C@H]1CC[C@@]2(C)C(=CC[C@H]3[C@@H]4CC[C@H]([C@H](C)CCCC(C)C)[C@@]4(C)CC[C@@H]32)C1 [cholesteryl γ-linolenate] |  |  | > 200 |  |  | 
CCCCCCCCCCC/C=C\CCCCCCC(=O)O [8-Eicosenoic Acid, 8-eicosenoic acid] | 52 | 81 | 48 | 14 | 41 | 
CCCCCCCCC=CCC=CCC=CCCCC(=O)O [5,8,11-eicosatrienoic acid] |  |  | 50 |  |  | 
CCCCC/C=C\C/C=C\C/C=C\CCCCC(=O)OCC(COC(=O)CCCC/C=C\C/C=C\C/C=C\CCCCC)OC(=O)CCCC/C=C\C/C=C\C/C=C\CCCCC [Tri-γ-Linolenin, tri-γ-linolenin] | < 10 | < 10 | > 200 | < 10 | < 10 | 
CCCCCC/C=C\CCCCCCCCCCC(=O)O [12-cis-Nonadecenoic Acid, 12-nonadecenoic acid] | 32 | 91 | 90 | < 10 | < 10 | 
CCCCC/C=C\C/C=C\C/C=C\CCCCCO [γ-Linolenyl Alcohol, γ-linolenyl alcohol] | < 10 | 41 | > 200 | < 10 | < 10 | 
CCCCC/C=C\C/C=C\CCCCCCCCCC(=O)O [11,14-cis-Eicosadienoic Acid, 11,14 eicosadienoic acid] | < 10 | 89 | 131 | < 10 | < 10 | 
